Values joined by “and” are separate entries in the source; they are usually repeats but may differ in a detail not shown here. Equal entries are not always repeated. HELM strings list units from the 5' end as sugar, base in round brackets, then linkage (d deoxyribose, r ribose, m 2'-O-methyl, p phosphodiester). Strings are as the collection lists them, not checked against the first reports. ss, as = sense and antisense strand; [una] = unlocked nucleic acid
Note: test system not given here.

The conditions of this data set: siRNA.
The substance “RNA1{r(G)p.r(G)p.r(G)p.r(A)p.r(G)p.r(G)p.r(U)p.r(C)p.r(U)p.r(U)p.r(A)p.r(G)p.r(A)p.r(A)p.r(A)p.r(A)p.r(C)p.r(A)p.r(C)p.r(T)p.r(T)}|RNA2{r(G)p.r(U)p.r(G)p.r(U)p.r(U)p.r(U)p.r(U)p.r(C)p.m(U)p.r(A)p.r(A)p.r(G)p.r(A)p.r(C)p.r(C)p.r(U)p.r(C)p.r(C)p.r(C)p.r(T)p.r(T)}$$$RNA1{StrandType:ss}|RNA2{StrandType:as}$” came in with a target mRNA knockdown of 82%.
The result for “RNA1{r(G)p.r(G)p.r(G)p.r(G)p.r(C)p.r(U)p.r(C)p.r(U)p.r(U)p.r(C)p.m(U)p.r(A)p.r(C)p.r(A)p.m(U)p.r(U)p.r(C)p.r(C)p.r(C)p.r(T)p.r(T)}|RNA2{r(G)p.r(G)p.r(G)p.r(A)p.r(A)p.m(U)p.r(G)p.m(U)p.r(A)p.r(G)p.r(A)p.r(A)p.r(G)p.r(A)p.r(G)p.r(C)p.r(C)p.r(C)p.r(C)p.r(T)p.r(T)}$$$RNA1{StrandType:ss}|RNA2{StrandType:as}$” reads 68%.
“RNA1{r(G)p.r(G)p.r(G)p.r(G)p.r(C)p.r(U)p.r(C)p.r(U)p.r(U)p.r(C)p.r(U)p.m(A)p.r(C)p.r(A)p.r(U)p.r(U)p.r(C)p.r(C)p.r(C)p.r(T)p.r(T)}|RNA2{r(G)p.r(G)p.r(G)p.r(A)p.r(A)p.r(U)p.r(G)p.m(U)p.r(A)p.r(G)p.r(A)p.r(A)p.r(G)p.r(A)p.r(G)p.r(C)p.r(C)p.r(C)p.r(C)p.r(T)p.r(T)}$$$RNA1{StrandType:ss}|RNA2{StrandType:as}$” showed a target mRNA knockdown of 72%.
The result for “RNA1{r(G)p.r(G)p.r(U)p.r(A)p.r(G)p.r(G)p.r(G)p.r(U)p.r(U)p.r(G)p.r(A)p.r(A)p.r(G)p.r(A)p.r(G)p.r(A)p.r(C)p.r(U)p.r(U)p.r(T)p.r(T)}|RNA2{r(A)p.r(A)p.r(G)p.r(U)p.r(C)p.r(U)p.r(C)p.r(U)p.r(U)p.r(C)p.r(A)p.r(A)p.r(C)p.r(C)p.r(C)p.m(U)p.r(A)p.r(C)p.r(C)p.r(T)p.r(T)}$$$RNA1{StrandType:ss}|RNA2{StrandType:as}$” reads 95%.
On to “RNA1{r(G)p.r(G)p.r(U)p.r(C)p.r(A)p.r(U)p.r(C)p.r(C)p.r(A)p.r(U)p.r(G)p.r(A)p.r(C)p.r(A)p.r(A)p.r(C)p.r(U)p.r(U)p.r(U)p.d(T)p.d(T)}|RNA2{r(A)p.r(A)p.r(A)p.r(G)p.r(U)p.r(U)p.r(G)p.r(U)p.r(C)p.r(A)p.r(U)p.r(G)p.r(G)p.r(A)p.r(U)p.r(G)p.r(A)p.r(C)p.r(C)p.d(T)p.d(T)}$$$RNA1{StrandType:ss}|RNA2{StrandType:as}$”, for which the target mRNA knockdown is 80% and 94%.
For the substance “RNA1{r(G)p.r(U)p.r(A)p.r(U)p.r(C)p.r(C)p.r(G)p.r(A)p.r(A)p.r(G)p.r(A)p.r(C)p.r(G)p.r(A)p.r(A)p.r(G)p.r(C)p.m(U)p.r(A)p.r(T)p.r(T)}|RNA2{m(U)p.r(A)p.r(G)p.r(C)p.r(U)p.r(U)p.r(C)p.r(G)p.r(U)p.r(C)p.r(U)p.r(U)p.r(C)p.r(G)p.r(G)p.r(A)p.m(U)p.r(A)p.r(C)p.r(T)p.r(T)}$$$RNA1{StrandType:ss}|RNA2{StrandType:as}$”, the target mRNA knockdown was determined as 95%.
Then “RNA1{r(G)p.r(U)p.r(A)p.r(U)p.r(G)p.r(A)p.r(C)p.r(C)p.r(G)p.r(A)p.r(C)p.r(U)p.r(A)p.r(C)p.r(G)p.r(C)p.r(G)p.r(U)p.r(A)p.r(T)p.r(T)}|RNA2{r(U)p.[una](U)p.r(C)p.r(A)p.r(G)p.r(U)p.r(G)p.r(U)p.r(G)p.r(A)p.r(U)p.r(G)p.r(A)p.r(C)p.r(A)p.r(C)p.r(U)p.r(U)p.r(G)p.r(T)p.r(T)}$$$RNA1{StrandType:ss}|RNA2{StrandType:as}$”, with 0% and 2%.
Then “RNA1{r(G)p.r(U)p.r(A)p.r(U)p.r(G)p.r(A)p.r(C)p.r(C)p.r(G)p.r(A)p.r(C)p.r(U)p.r(A)p.r(C)p.r(G)p.r(C)p.r(G)p.r(U)p.r(A)p.r(T)p.r(T)}|RNA2{r(U)p.r(U)p.[una](C)p.r(A)p.r(G)p.r(U)p.r(G)p.r(U)p.r(G)p.r(A)p.r(U)p.r(G)p.r(A)p.r(C)p.r(A)p.r(C)p.r(U)p.r(U)p.r(G)p.r(T)p.r(T)}$$$RNA1{StrandType:ss}|RNA2{StrandType:as}$”, with 45% and 50%; and “RNA1{r(G)p.r(U)p.r(A)p.r(U)p.r(G)p.r(A)p.r(C)p.r(C)p.r(G)p.r(A)p.r(C)p.r(U)p.r(A)p.r(C)p.r(G)p.r(C)p.r(G)p.r(U)p.r(A)p.r(T)p.r(T)}|RNA2{r(U)p.r(U)p.r(C)p.[una](A)p.r(G)p.r(U)p.r(G)p.r(U)p.r(G)p.r(A)p.r(U)p.r(G)p.r(A)p.r(C)p.r(A)p.r(C)p.r(U)p.r(U)p.r(G)p.r(T)p.r(T)}$$$RNA1{StrandType:ss}|RNA2{StrandType:as}$”, with 94%; and “RNA1{r(G)p.r(U)p.r(A)p.r(U)p.r(G)p.r(A)p.r(C)p.r(C)p.r(G)p.r(A)p.r(C)p.r(U)p.r(A)p.r(C)p.r(G)p.r(C)p.r(G)p.r(U)p.r(A)p.r(T)p.r(T)}|RNA2{r(U)p.r(U)p.r(C)p.r(A)p.[una](G)p.r(U)p.r(G)p.r(U)p.r(G)p.r(A)p.r(U)p.r(G)p.r(A)p.r(C)p.r(A)p.r(C)p.r(U)p.r(U)p.r(G)p.r(T)p.r(T)}$$$RNA1{StrandType:ss}|RNA2{StrandType:as}$”, with 92%.
The result for “RNA1{r(G)p.r(U)p.r(A)p.r(U)p.r(G)p.r(A)p.r(C)p.r(C)p.r(G)p.r(A)p.r(C)p.r(U)p.r(A)p.r(C)p.r(G)p.r(C)p.r(G)p.r(U)p.r(A)p.r(T)p.r(T)}|RNA2{r(U)p.r(U)p.r(C)p.r(A)p.r(G)p.[una](U)p.r(G)p.r(U)p.r(G)p.r(A)p.r(U)p.r(G)p.r(A)p.r(C)p.r(A)p.r(C)p.r(U)p.r(U)p.r(G)p.r(T)p.r(T)}$$$RNA1{StrandType:ss}|RNA2{StrandType:as}$” reads 78%; that for “RNA1{r(G)p.r(U)p.r(A)p.r(U)p.r(G)p.r(A)p.r(C)p.r(C)p.r(G)p.r(A)p.r(C)p.r(U)p.r(A)p.r(C)p.r(G)p.r(C)p.r(G)p.r(U)p.r(A)p.r(T)p.r(T)}|RNA2{r(U)p.r(U)p.r(C)p.r(A)p.r(G)p.r(U)p.[una](G)p.r(U)p.r(G)p.r(A)p.r(U)p.r(G)p.r(A)p.r(C)p.r(A)p.r(C)p.r(U)p.r(U)p.r(G)p.r(T)p.r(T)}$$$RNA1{StrandType:ss}|RNA2{StrandType:as}$”, 86%; that for “RNA1{r(G)p.r(U)p.r(A)p.r(U)p.r(G)p.r(A)p.r(C)p.r(C)p.r(G)p.r(A)p.r(C)p.r(U)p.r(A)p.r(C)p.r(G)p.r(C)p.r(G)p.r(U)p.r(A)p.r(T)p.r(T)}|RNA2{r(U)p.r(U)p.r(C)p.r(A)p.r(G)p.r(U)p.r(G)p.[una](U)p.r(G)p.r(A)p.r(U)p.r(G)p.r(A)p.r(C)p.r(A)p.r(C)p.r(U)p.r(U)p.r(G)p.r(T)p.r(T)}$$$RNA1{StrandType:ss}|RNA2{StrandType:as}$”, 90%.
Substance “RNA1{r(G)p.r(U)p.r(A)p.r(U)p.r(G)p.r(A)p.r(C)p.r(C)p.r(G)p.r(A)p.r(C)p.r(U)p.r(A)p.r(C)p.r(G)p.r(C)p.r(G)p.r(U)p.r(A)p.r(T)p.r(T)}|RNA2{r(U)p.r(U)p.r(C)p.r(A)p.r(G)p.r(U)p.r(G)p.r(U)p.[una](G)p.r(A)p.r(U)p.r(G)p.r(A)p.r(C)p.r(A)p.r(C)p.r(U)p.r(U)p.r(G)p.r(T)p.r(T)}$$$RNA1{StrandType:ss}|RNA2{StrandType:as}$” yielded a target mRNA knockdown of 89%.
The result for “RNA1{r(G)p.r(U)p.r(A)p.r(U)p.r(G)p.r(A)p.r(C)p.r(C)p.r(G)p.r(A)p.r(C)p.r(U)p.r(A)p.r(C)p.r(G)p.r(C)p.r(G)p.r(U)p.r(A)p.r(T)p.r(T)}|RNA2{r(U)p.r(U)p.r(C)p.r(A)p.r(G)p.r(U)p.r(G)p.r(U)p.r(G)p.[una](A)p.r(U)p.r(G)p.r(A)p.r(C)p.r(A)p.r(C)p.r(U)p.r(U)p.r(G)p.r(T)p.r(T)}$$$RNA1{StrandType:ss}|RNA2{StrandType:as}$” reads 23%.
Take “RNA1{r(G)p.r(U)p.r(A)p.r(U)p.r(G)p.r(A)p.r(C)p.r(C)p.r(G)p.r(A)p.r(C)p.r(U)p.r(A)p.r(C)p.r(G)p.r(C)p.r(G)p.r(U)p.r(A)p.r(T)p.r(T)}|RNA2{r(U)p.r(U)p.r(C)p.r(A)p.r(G)p.r(U)p.r(G)p.r(U)p.r(G)p.r(A)p.[una](U)p.r(G)p.r(A)p.r(C)p.r(A)p.r(C)p.r(U)p.r(U)p.r(G)p.r(T)p.r(T)}$$$RNA1{StrandType:ss}|RNA2{StrandType:as}$”: the target mRNA knockdown worked out at 0%.
Then “RNA1{r(G)p.r(U)p.r(A)p.r(U)p.r(G)p.r(A)p.r(C)p.r(C)p.r(G)p.r(A)p.r(C)p.r(U)p.r(A)p.r(C)p.r(G)p.r(C)p.r(G)p.r(U)p.r(A)p.r(T)p.r(T)}|RNA2{r(U)p.r(U)p.r(C)p.r(A)p.r(G)p.r(U)p.r(G)p.r(U)p.r(G)p.r(A)p.r(U)p.[una](G)p.r(A)p.r(C)p.r(A)p.r(C)p.r(U)p.r(U)p.r(G)p.r(T)p.r(T)}$$$RNA1{StrandType:ss}|RNA2{StrandType:as}$”, with 59%; and “RNA1{r(G)p.r(U)p.r(A)p.r(U)p.r(G)p.r(A)p.r(C)p.r(C)p.r(G)p.r(A)p.r(C)p.r(U)p.r(A)p.r(C)p.r(G)p.r(C)p.r(G)p.r(U)p.r(A)p.r(T)p.r(T)}|RNA2{r(U)p.r(U)p.r(C)p.r(A)p.r(G)p.r(U)p.r(G)p.r(U)p.r(G)p.r(A)p.r(U)p.r(G)p.[una](A)p.r(C)p.r(A)p.r(C)p.r(U)p.r(U)p.r(G)p.r(T)p.r(T)}$$$RNA1{StrandType:ss}|RNA2{StrandType:as}$”, with 74%; and “RNA1{r(G)p.r(U)p.r(A)p.r(U)p.r(G)p.r(A)p.r(C)p.r(C)p.r(G)p.r(A)p.r(C)p.r(U)p.r(A)p.r(C)p.r(G)p.r(C)p.r(G)p.r(U)p.r(A)p.r(T)p.r(T)}|RNA2{r(U)p.r(U)p.r(C)p.r(A)p.r(G)p.r(U)p.r(G)p.r(U)p.r(G)p.r(A)p.r(U)p.r(G)p.r(A)p.[una](C)p.r(A)p.r(C)p.r(U)p.r(U)p.r(G)p.r(T)p.r(T)}$$$RNA1{StrandType:ss}|RNA2{StrandType:as}$”, with 64%.
“RNA1{r(G)p.r(U)p.r(A)p.r(U)p.r(G)p.r(A)p.r(C)p.r(C)p.r(G)p.r(A)p.r(C)p.r(U)p.r(A)p.r(C)p.r(G)p.r(C)p.r(G)p.r(U)p.r(A)p.r(T)p.r(T)}|RNA2{r(U)p.r(U)p.r(C)p.r(A)p.r(G)p.r(U)p.r(G)p.r(U)p.r(G)p.r(A)p.r(U)p.r(G)p.r(A)p.r(C)p.[una](A)p.r(C)p.r(U)p.r(U)p.r(G)p.r(T)p.r(T)}$$$RNA1{StrandType:ss}|RNA2{StrandType:as}$” had a target mRNA knockdown of 86%.

These data come from the OligoGym collection.
